In assay [1] the target is T1, NLRP3 (Homo sapiens, UniProt Q96P20). In words: THP-1 cells pyroptosis assay (LPS + nigericin, resazurin readout; THP IC50). The assay is classed as cell-based. Also noted: Seed THP-1 cells (25,000 cells/well) containing 1.0 μg/ml LPS in 40 μl of RPMI medium; host or cells: THP-1 cells. An outline of the steps: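 IC50 from 4-parameter fit of resazurin fluorescence (100 μM, 1-2 hrs), reflecting surviving cells after pyroptosis. LPS-primed (1 μg/ml) THP-1 cells in FBS-free RPMI got compound for 3 hrs at 37° C (top 10 μM, half-log, 8 points), then nigericin 5 μM for 1 hr.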
T1 sequence (Q96P20 whole entry): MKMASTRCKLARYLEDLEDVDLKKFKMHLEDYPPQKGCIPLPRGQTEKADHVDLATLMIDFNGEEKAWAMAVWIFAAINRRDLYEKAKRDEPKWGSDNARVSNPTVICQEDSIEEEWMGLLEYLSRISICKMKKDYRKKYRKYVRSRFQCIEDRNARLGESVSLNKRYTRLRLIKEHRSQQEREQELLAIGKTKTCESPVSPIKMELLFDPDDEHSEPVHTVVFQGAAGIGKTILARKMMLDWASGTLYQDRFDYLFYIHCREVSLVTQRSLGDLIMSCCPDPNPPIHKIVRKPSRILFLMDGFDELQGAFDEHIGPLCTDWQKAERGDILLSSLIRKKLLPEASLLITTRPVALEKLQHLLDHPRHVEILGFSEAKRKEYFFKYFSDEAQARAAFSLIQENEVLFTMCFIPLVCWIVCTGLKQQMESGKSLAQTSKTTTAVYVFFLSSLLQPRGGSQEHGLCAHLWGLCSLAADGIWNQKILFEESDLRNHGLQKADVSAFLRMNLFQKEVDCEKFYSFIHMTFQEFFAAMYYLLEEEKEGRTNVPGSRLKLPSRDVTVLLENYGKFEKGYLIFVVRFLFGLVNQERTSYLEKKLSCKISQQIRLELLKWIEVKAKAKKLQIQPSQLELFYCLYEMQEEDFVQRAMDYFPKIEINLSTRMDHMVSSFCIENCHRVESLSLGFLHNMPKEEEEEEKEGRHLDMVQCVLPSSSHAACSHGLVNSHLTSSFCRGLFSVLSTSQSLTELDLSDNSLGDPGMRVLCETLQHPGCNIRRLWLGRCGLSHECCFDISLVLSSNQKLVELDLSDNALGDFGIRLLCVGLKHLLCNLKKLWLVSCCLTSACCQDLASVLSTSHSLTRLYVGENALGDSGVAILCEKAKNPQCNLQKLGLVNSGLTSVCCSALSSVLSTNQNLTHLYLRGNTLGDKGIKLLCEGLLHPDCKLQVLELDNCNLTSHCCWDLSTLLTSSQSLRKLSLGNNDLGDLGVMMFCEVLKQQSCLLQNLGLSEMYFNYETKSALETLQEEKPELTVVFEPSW
A general note: Resazurin is reduced to fluorescent resorufin, in cell work by metabolically active cells.

Assay [2] addresses T1, NLRP3. Nature of the assay: Human whole blood IL1β release assay (LPS + nigericin, AlphaLisa IL-1β; HWB IC50). The class given is cell-based. Also noted: Human whole blood in Li-heparin tubes was obtained from healthy donors from a volunteer donor panel; from tissue; host or cells: human whole blood from healthy donors. The settings on record: IL-1β release. The gist of the method: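 IL-1β in plasma supernatant quantified by AlphaLisa after nigericin (10 μM final, 1 h, 37 °C) triggering of human whole blood that had been preincubated 3 h with LPS (1 μg/ml) plus compound (half-log, 8 points, from 10 μM). IC50 by variable-slope four-parameter regression.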
For orientation: Bead proximity is the source of the signal in Alpha formats.

Where a name gives a salt, the structure may show the parent alone. A value given as a limit tells only on which side of the number the result lay.

One may read the IC50 as the point on the concentration scale where inhibition reaches its midpoint.

With `Cc1cc(-c2ccc3c(c2NC(=O)NS(=O)(=O)c2ccn(C4CC4)n2)CCC3)ccn1` [Example 270, 1-Cyclopropyl-N-((5-(2-methylpyridin-4-yl)-2,3-dihydro-1H-inden-4-yl)carbamoyl)-1H-pyrazole-3-sulfonamide, sodium salt], the IC50 on NLRP3 [1] and on NLRP3 [2] was at most 500 nM each time.
As for `CC(C)c1cc(F)cc(-c2cccc(C#N)c2)c1NC(=O)NS(=O)(=O)c1cc(CN(C)C)n(C(C)C)n1` [Example 39, N-((3′-Cyano-5-fluoro-3-iso-propyl-[1,1′-biphenyl]-2-yl)carbamoyl)-5-((dimethylamino)methyl)-1-isopropyl-1H-pyrazole-3-sulfonamide], the IC50 at NLRP3 [1] and at NLRP3 [2] was at most 1000 nM throughout.
With `COc1cc(-c2cc(F)cc(C(C)C)c2NC(=O)NS(=O)(=O)CC2CCN(C)C2)ccn1` (stereo not drawn) [Example 163, N-((4-Fluoro-2-isopropyl-6-(2-methoxypyridin-4-yl)phenyl)carbamoyl)-1-(1-methylpyrrolidin-3-yl) methanesulfonamide], the IC50 at NLRP3 [1] and on NLRP3 [2] was at most 500 nM throughout.
Turning to `COc1cc(-c2ccc3c(c2NC(=O)NS(=O)(=O)c2cc(C4(OC)COC4)n(C)n2)CCC3)ccn1` [Example 188, 5-(3-Methoxyoxetan-3-yl)-N-((5-(2-methoxypyridin-4-yl)-2,3-dihydro-1H-inden-4-yl)carbamoyl)-1-methyl-1H-pyrazole-3-sulfonamide], the IC50 at NLRP3 [1] and at NLRP3 [2] was at most 500 nM each time.
Take `COc1cc(-c2ccc3c(c2NC(=O)NS(=O)(=O)c2ccn(C(C)(C)CN4CC(F)C4)n2)CCC3)ccn1` [Example 242, 1-(1-(3-Fluoroazetidin-1-yl)-2-methylpropan-2-yl)-N-((5-(2-methoxypyridin-4-yl)-2,3-dihydro-1H-inden-4-yl)carbamoyl)-1H-pyrazole-3-sulfonamide, sodium salt]: the IC50 on NLRP3 [1] and at NLRP3 [2] was at most 500 nM throughout.
As to `COc1cc(-c2ccc3c(c2NC(=O)NS(=O)(=O)c2coc(C4CC4)n2)CCC3)ccn1` [Example 293, 2-Cyclopropyl-N-((5-(2-methoxypyridin-4-yl)-2,3-dihydro-1H-inden-4-yl)carbamoyl)oxazole-4-sulfonamide, sodium salt], the values for the IC50 on NLRP3 [1] and on NLRP3 [2] were at most 500 nM and at most 5000 nM, respectively.
`CC(C)n1cc(S(=O)(=O)NC(=O)Nc2c(-c3ccnc(C#N)c3)ccc3c2CCC3)ccc1=O` [Example 71, N-((5-(2-Cyanopyridin-4-yl)-2,3-dihydro-1H-inden-4-yl)carbamoyl)-1-isopropyl-6-oxo-1,6-dihydropyridine-3-sulfonamide, sodium salt]: the IC50 on NLRP3 [1] was at most 500 nM; on NLRP3 [2], at most 1000 nM.
`CCN(CC)CCCS(=O)(=O)NC(=O)Nc1c(-c2cccnc2)cc(F)cc1C(C)C` [Example 58, 3-(Diethylamino)-N-((4-fluoro-2-isopropyl-6-(pyridin-3-yl)phenyl)carbamoyl)propane-1-sulfonamide]: the IC50 at NLRP3 [1] and at NLRP3 [2] was at most 500 nM throughout.
For the compound `CN(C)c1cnc(S(=O)(=O)NC(=O)Nc2c(-c3ccncc3)cc(F)c3c2CCC3)cn1` [Example 109, 5-(Dimethylamino)-N-((7-fluoro-5-(pyridin-4-yl)-2,3-dihydro-1H-inden-4-yl)carbamoyl)pyrazine-2-sulfonamide], the IC50 on NLRP3 [1] is at most 500 nM; on NLRP3 [2], at most 5000 nM.
Consider `COc1cc(-c2ccc3c(c2NC(=O)NS(=O)(=O)c2ccn(C4CC4)n2)CCC3)c(F)cn1` [Example 255, 1-Cyclopropyl-N-((5-(5-fluoro-2-methoxypyridin-4-yl)-2,3-dihydro-1H-inden-4-yl)carbamoyl)-1H-pyrazole-3-sulfonamide, sodium salt], for which the IC50 on NLRP3 [1] and on NLRP3 [2] was at most 500 nM throughout.
Take `[2H]C([2H])([2H])Oc1cc(-c2ccc3c(c2NC(=O)NS(=O)(=O)c2ccn(C4CC4)n2)CCO3)ccn1` [Example 278, 1-Cyclopropyl-N-((5-(2-(methoxy-d3)pyridin-4-yl)-2,3-dihydrobenzofuran-4-yl)carbamoyl)-1H-pyrazole-3-sulfonamide, sodium salt]: the IC50 on NLRP3 [1] and on NLRP3 [2] was at most 500 nM each time.
As to `COc1cc(-c2ccc3c(c2NC(=O)NS(=O)(=O)c2ccnc(C(C)C)c2)CCC3)ccn1` [Example 178, 2-Isopropyl-N-((5-(2-methoxypyridin-4-yl)-2,3-dihydro-1H-inden-4-yl)carbamoyl)pyridine-4-sulfonamide, sodium salt], the IC50 on NLRP3 [1] was at most 500 nM; at NLRP3 [2], at most 5000 nM.
For `CC(C)n1ccc(S(=O)(=O)NC(=O)Nc2c(-c3cc[nH]c(=O)c3)ccc3c2CCC3)n1` [Example 218, 1-Isopropyl-N-((5-(2-oxo-1,2-dihydropyridin-4-yl)-2,3-dihydro-1H-inden-4-yl)carbamoyl)-1H-pyrazole-3-sulfonamide], in that order: at most 500 nM and at most 1000 nM.
Regarding `COc1cc(-c2ccc3c(c2NC(=O)NS(=O)(=O)c2ccn(C(C)(C)CN4CCC4)n2)CCO3)ccn1` [Example 258, 1-(1-(Azetidin-1-yl)-2-rnethylpropan-2-yl)-N-((5-(2-methoxypyridin-4-yl)-2,3-dihydrobenzofuran-4-yl)carbamoyl)-1H-pyrazole-3-sulfonamide, sodium salt], the IC50 on NLRP3 [1] and on NLRP3 [2] was at most 500 nM throughout.
As to `COc1cc(-c2ccc3c(c2NC(=O)NS(=O)(=O)c2nn(C(C)C)cc2F)CCC3)ccn1` [Example 239, 4-Fluoro-1-isopropyl-N-((5-(2-methoxypyridin-4-yl)-2,3-dihydro-1H-inden-4-yl)carbamoyl)-1H-pyrazole-3-sulfonamide], the IC50 on NLRP3 [1] and at NLRP3 [2] was at most 500 nM each time.
Turning to `COc1cc(-c2ccc3c(c2NC(=O)NS(=O)(=O)c2cnn(C(C)C)c2)CCC3)ccn1` [Example 250, 1-Isopropyl-N-((5-(2-methoxypyridin-4-yl)-2,3-dihydro-1H-inden-4-yl)carbamoyl)-1H-pyrazole-4-sulfonamide, sodium salt], the IC50 on NLRP3 [1] and on NLRP3 [2] was at most 500 nM throughout.
In the case of `COc1cc(-c2cc(C3CC3)c3c(c2NC(=O)NS(=O)(=O)c2ccn(C4CC4)n2)CCC3)ccn1` [Example 171, 1-Cyclopropyl-N-((7-cyclopropyl-5-(2-methoxypyridin-4-yl)-2,3-dihydro-1H-inden-4-yl)carbamoyl)-1H-pyrazole-3-sulfonamide, sodium salt], the IC50 at NLRP3 [1] was at most 500 nM; on NLRP3 [2], at most 5000 nM.
`COc1cc(-c2ccc3c(c2NC(=O)NS(=O)(=O)c2ccn(CC(C)(C)OC)n2)CCC3)ccn1` [Example 185, 1-(2-Methoxy-2-methylpropyl)-N-((5-(2-methoxypyridin-4-yl)-2,3-dihydro-1H-inden-4-yl)carbamoyl)-1H-pyrazole-3-sulfonamide]: the IC50 on NLRP3 [1] and on NLRP3 [2] was at most 500 nM each time.
For `CCOc1cc(-c2cc(F)cc(C(C)C)c2NC(=O)NS(=O)(=O)c2ccn(C(C)C)n2)ccn1` [Example 24, N-((2-(2-Ethoxypyridin-4-yl)-4-fluoro-6-iso-propylphenyl)carbamoyl)-1-iso-propyl-1H-pyrazole-3-sulfonamide], the IC50 on NLRP3 [1] was at most 500 nM; on NLRP3 [2], at most 1000 nM.
As to `CC(C)n1ccc(S(=O)(=O)NC(=O)Nc2c(-c3ccnc(C4CC4)c3)ccc3c2CCC3)n1` [Example 295, N-((5-(2-Cyclopropylpyridin-4-yl)-2,3-dihydro-1H-inden-4-yl)carbamoyl)-1-isopropyl-1H-pyrazole-3-sulfonamide, sodium salt], the IC50 on NLRP3 [1] was at most 500 nM; on NLRP3 [2] it was at most 1000 nM.
For `COc1cc(-c2ccc3c(c2NC(=O)NS(=O)(=O)CC2CCN(C)C2)CCC3)ccn1` (stereo not drawn) [Example 164, N-((5-(2-Methoxypyridin-4-yl)-2,3-dihydro-1H-inden-4-yl)carbamoyl)-1-(1-methylpyrrolidin-3-yl) methanesulfonamide], the IC50 on NLRP3 [1] and on NLRP3 [2] was at most 500 nM in each case.
As for `CCn1nc(S(=O)(=O)NC(=O)Nc2c(-c3ccnc(OC)c3)cc(F)c3c2CCC3)cc1CN(C)C` [Example 66, 5-((Dimethylamino)methyl)-1-ethyl-N-((7-fluoro-5-(2-methoxypyridin-4-yl)-2,3-dihydro-1H-inden-4-yl)carbamoyl)-1H-pyrazole-3-sulfonamide], the IC50 at NLRP3 [1] and at NLRP3 [2] was at most 500 nM in each case.
For `COc1cc(-c2ccc3c(c2NC(=O)NS(=O)(=O)c2ccn(C(C)(C)C#N)n2)CCO3)ccn1` [Example 196, 1-(2-Cyanopropan-2-yl)-N-((5-(2-methoxypyridin-4-yl)-2,3-dihydrobenzofuran-4-yl)carbamoyl)-1H-pyrazole-3-sulfonamide], the IC50 at NLRP3 [1] and on NLRP3 [2] was at most 500 nM throughout.
For `COc1cc(-c2ccc3c(c2NC(=O)NS(=O)(=O)c2ccn(C(C)(C)CN4CC(F)C4)n2)CCO3)ccn1` [Example 307, 1-(1-(3-Fluoroazetidin-1-yl)-2-methylpropan-2-yl)-N-((5-(2-methoxypyridin-4-yl)-2,3-dihydrobenzofuran-4-yl)carbamoyl)-1H-pyrazole-3-sulfonamide], the IC50 at NLRP3 [1] and on NLRP3 [2] was at most 500 nM in each case.

The values are drawn from US20200361895A1, “NOVEL SULFONAMIDE CARBOXAMIDE COMPOUNDS” (Inflazome Limited, priority 2017, published 2020).
